The record followed here is ChEMBL document CHEMBL1914445 (Eur J Med Chem, 2011).

For experiment [1], the target named is T1, Cholinesterase (Equus caballus, UniProt P81908). Description: Inhibition of equine serum BuChE using butyrylthiocholine iodide as substrate preincubated for 10 mins before substrate addition by Ellman's method.
The target in experiment [2] is T2, Acetylcholinesterase (Electrophorus electricus, UniProt O42275).
Description: Inhibition of Electrophorus electricus AChE using acetylthiocholine iodide as substrate preincubated for 10 mins before substrate addition by Ellman's method
Experiment [3] concerns the target T2, Acetylcholinesterase. The source holds these as a separate data set.
Description: Inhibition of Electrophorus electricus AChE using acetylthiocholine iodide as substrate preincubated for 10 mins before substrate addition by Ellman's method in presence of bovine serum albumin
In experiment [4] the target is T1, Cholinesterase.
Description: Inhibition of equine serum BuChE using butyrylthiocholine iodide as substrate preincubated for 10 mins before substrate addition by Ellman's method in presence of bovine serum albumin
In experiment [5] the target is T3, Acetylcholinesterase (Homo sapiens, UniProt P22303). Briefly: Inhibition of human recombinant AChE using acetylthiocholine as substrate by Ellman's assay. In general terms: DTNB colorimetry detects thiols as they appear.
Experiment [6] has as its target T4, Cholinesterase (Homo sapiens, UniProt P06276). Description: Inhibition of human serum BuChE using butyrylthiocholine as substrate by Ellman's assay.
A further experiment is filed under the species Homo sapiens. Description: Selectivity ratio of IC50 for human […].
In experiment [7] the target is T2, Acetylcholinesterase. Briefly: Mixed-type inhibition of Electrophorus electricus AChE assessed as hydrolysis of acetylthiocholine by Lineweaver-Burk plot analysis.
Experiment [8] deals with SH-SY5Y. Description: Neuroprotective activity against amyloid beta(25-32)-induced toxicity in human SH-SY5Y cells assessed as reduction in cell viability at 0.3 uM preincubated for 24 hrs measured after 24 hrs by MTT assay. It is filed as functional. On the technique in general: Tetrazolium assays rely on reduction of a dye to a coloured formazan, in cell work by metabolically active cells.

The test system of experiment [9] is SH-SY5Y. Description: Neuroprotective activity against amyloid beta(25-32)-induced toxicity in human SH-SY5Y cells assessed as reduction in cell viability at 1 uM preincubated for 24 hrs measured after 24 hrs by MTT assay. It is filed as functional.
For experiment [10], the system named is SH-SY5Y. Briefly: Neuroprotective activity against amyloid beta(25-32)-induced toxicity in human SH-SY5Y cells assessed as reduction in cell viability at 3 uM preincubated for 24 hrs measured after 24 hrs by MTT assay. It is filed as functional.
The target in experiment [11] is T3, Acetylcholinesterase. Briefly: Inhibition of human recombinant AChE using acetylthiocholine as substrate by Ellman's assay in presence of bovine serum albumin.
Experiment [12] deals with T4, Cholinesterase. Briefly: Inhibition of human serum BuChE using butyrylthiocholine as substrate by Ellman's assay in presence of bovine serum albumin.

T3 sequence (P22303 whole entry): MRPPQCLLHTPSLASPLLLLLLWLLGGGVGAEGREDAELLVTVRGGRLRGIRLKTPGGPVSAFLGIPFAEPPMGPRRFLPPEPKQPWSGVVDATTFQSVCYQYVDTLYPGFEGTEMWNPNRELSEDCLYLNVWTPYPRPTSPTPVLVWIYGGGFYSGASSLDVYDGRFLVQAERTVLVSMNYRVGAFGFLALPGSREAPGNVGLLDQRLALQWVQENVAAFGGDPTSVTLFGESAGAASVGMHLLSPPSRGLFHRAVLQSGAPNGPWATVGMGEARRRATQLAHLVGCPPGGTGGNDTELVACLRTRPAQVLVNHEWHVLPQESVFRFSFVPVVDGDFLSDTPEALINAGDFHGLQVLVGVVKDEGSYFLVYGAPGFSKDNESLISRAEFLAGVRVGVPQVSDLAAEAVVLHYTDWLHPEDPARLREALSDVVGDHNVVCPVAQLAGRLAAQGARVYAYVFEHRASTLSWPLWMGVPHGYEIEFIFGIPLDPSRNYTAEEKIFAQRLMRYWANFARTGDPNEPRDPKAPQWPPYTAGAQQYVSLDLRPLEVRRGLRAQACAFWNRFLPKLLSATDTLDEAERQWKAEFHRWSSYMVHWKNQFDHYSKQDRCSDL
T4 sequence (P06276 whole entry): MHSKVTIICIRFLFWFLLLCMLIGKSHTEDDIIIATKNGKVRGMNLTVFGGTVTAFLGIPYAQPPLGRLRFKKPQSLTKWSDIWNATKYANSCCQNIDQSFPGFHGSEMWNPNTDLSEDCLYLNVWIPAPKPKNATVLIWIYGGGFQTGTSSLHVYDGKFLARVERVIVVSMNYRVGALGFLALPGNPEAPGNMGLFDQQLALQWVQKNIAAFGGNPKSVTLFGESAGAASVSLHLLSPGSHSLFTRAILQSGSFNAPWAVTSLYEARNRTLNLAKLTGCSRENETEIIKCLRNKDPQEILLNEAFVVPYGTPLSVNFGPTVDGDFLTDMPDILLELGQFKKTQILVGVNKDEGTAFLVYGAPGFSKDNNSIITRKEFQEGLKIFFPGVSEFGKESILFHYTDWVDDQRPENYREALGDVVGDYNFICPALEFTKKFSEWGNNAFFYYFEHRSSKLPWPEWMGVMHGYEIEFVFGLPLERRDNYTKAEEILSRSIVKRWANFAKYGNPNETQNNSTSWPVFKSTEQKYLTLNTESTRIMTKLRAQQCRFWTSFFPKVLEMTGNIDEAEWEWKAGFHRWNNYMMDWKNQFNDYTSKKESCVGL
T2 sequence (O42275 whole entry): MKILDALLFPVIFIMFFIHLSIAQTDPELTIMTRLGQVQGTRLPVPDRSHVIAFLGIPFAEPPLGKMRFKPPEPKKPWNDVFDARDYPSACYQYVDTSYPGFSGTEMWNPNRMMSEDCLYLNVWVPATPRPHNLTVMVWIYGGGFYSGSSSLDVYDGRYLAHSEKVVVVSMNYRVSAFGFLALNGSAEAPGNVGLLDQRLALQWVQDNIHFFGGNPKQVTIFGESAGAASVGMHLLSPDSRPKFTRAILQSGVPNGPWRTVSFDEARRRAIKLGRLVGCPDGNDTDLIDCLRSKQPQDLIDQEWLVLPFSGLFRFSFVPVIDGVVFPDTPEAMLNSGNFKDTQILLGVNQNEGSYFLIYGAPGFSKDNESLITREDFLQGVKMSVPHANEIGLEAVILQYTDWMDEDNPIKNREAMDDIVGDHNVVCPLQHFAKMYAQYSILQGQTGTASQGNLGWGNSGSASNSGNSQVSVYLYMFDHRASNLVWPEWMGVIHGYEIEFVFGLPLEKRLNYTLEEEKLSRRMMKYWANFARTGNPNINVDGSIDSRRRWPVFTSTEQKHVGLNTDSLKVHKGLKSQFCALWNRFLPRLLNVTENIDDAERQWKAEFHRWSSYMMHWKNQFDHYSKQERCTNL
T1 sequence (P81908 whole entry): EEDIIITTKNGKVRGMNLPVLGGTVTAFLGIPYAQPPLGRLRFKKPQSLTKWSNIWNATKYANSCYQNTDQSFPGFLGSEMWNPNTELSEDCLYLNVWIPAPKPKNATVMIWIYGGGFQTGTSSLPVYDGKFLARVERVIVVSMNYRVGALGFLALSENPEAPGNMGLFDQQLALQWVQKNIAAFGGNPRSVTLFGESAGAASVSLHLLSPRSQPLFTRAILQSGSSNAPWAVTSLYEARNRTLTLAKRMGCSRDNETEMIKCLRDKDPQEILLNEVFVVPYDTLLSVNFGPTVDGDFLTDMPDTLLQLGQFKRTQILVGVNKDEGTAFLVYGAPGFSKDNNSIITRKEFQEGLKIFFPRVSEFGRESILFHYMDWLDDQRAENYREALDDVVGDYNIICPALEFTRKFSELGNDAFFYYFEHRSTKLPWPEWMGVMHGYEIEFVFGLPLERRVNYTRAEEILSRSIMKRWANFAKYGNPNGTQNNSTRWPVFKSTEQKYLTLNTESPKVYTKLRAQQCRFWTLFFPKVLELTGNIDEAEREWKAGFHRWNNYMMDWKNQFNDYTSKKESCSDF

Turning to `Nc1c2c(nc3oc(-c4ccccc4)cc13)CCCCC2`, the IC50 on Cholinesterase [1] was 6 µM; at Acetylcholinesterase [2] it was > 100 µM.

`Nc1c2c(nc3c1cc(-c1ccc(Cl)cc1)n3-c1ccccc1)CCCC2`: the figures for the half-maximal inhibitory concentration (IC50) against Acetylcholinesterase [3] and at Cholinesterase [4] were 24 µM and 15 µM, respectively.

In the case of `Nc1c2c(nc3oc(-c4ccc(Cl)cc4)cc13)CCCCC2`, the IC50 was > 100 µM on Acetylcholinesterase [3] and 43 µM on Cholinesterase [4].

Take `Cc1ccc(-c2cc3c(N)c4c(nc3o2)CCCC4)cc1`: the IC50 against Cholinesterase [1] was 2.9 µM; at Acetylcholinesterase [5], > 100 µM; against Cholinesterase [6], 119 µM; at Acetylcholinesterase [2], > 100 µM.

Take `Nc1c2c(nc3oc(-c4ccc(Cl)cc4)cc13)CCCC2`: the IC50 against Cholinesterase [1] was 23 µM; on Acetylcholinesterase [5] it was > 100 µM; on Cholinesterase [6], 26.1 µM; at Acetylcholinesterase [2] it was > 100 µM.

For the compound `Cc1ccc(-c2cc3c(N)c4c(nc3o2)CCCCC4)cc1`, the IC50 against Acetylcholinesterase [3] was > 30 µM; against Cholinesterase [4] it was 13 µM.

As to `Nc1c2c(nc3oc(-c4ccccc4)cc13)CCCC2`, the IC50 at Cholinesterase [1] is 3.6 µM; at Acetylcholinesterase [5], > 100 µM; against Cholinesterase [6], 3.78 µM; against Acetylcholinesterase [2] it was > 100 µM.

Consider `Nc1c2c(nc3c1cc(-c1ccccc1)n3-c1ccccc1)CCCC2`, for which the IC50 at Cholinesterase [1] stood at 0.074 µM; at Acetylcholinesterase [5] it was 45.5 µM; on Cholinesterase [6] it was 8.57 µM; at Acetylcholinesterase [2], 0.61 µM. Also, the Ratio IC50 in the experiment listed under Homo sapiens is 5. Besides, the Ki on Acetylcholinesterase [7] worked out at 0.621 µM. The Activity is recorded as 11.4% with SH-SY5Y [8], 19% in the experiment with SH-SY5Y [9] and 23.7% with SH-SY5Y [10].

As for `N#Cc1c(-c2ccc(Cl)cc2)oc2nc3c(c(N)c12)CCCC3`, the IC50 was > 100 µM on Acetylcholinesterase [11], > 100 µM at Cholinesterase [12], > 100 µM on Acetylcholinesterase [3] and 32.4 µM against Cholinesterase [4].

As for `Nc1c2c(nc3c1cc(-c1ccccc1)n3-c1ccccc1)CCCCC2`, the IC50 against Acetylcholinesterase [3] is > 30 µM; against Cholinesterase [4], 1.1 µM.

A word on the IC50: it is the midpoint of a concentration-inhibition curve. As a reminder, the Ki is a dissociation constant, usually derived from enzyme kinetics or from competition with a known ligand.
